Measurements: BindingDB's records for doi:10.1021/jm7012858 (Wyeth Research, 2008)

Molecular target: Phosphatidylinositol 3-kinase regulatory subunit alpha/4,5-bisphosphate 3-kinase catalytic subunit alpha isoform (Homo sapiens, UniProt P42336)
Assay: PI3K Inhibition Assay
Settings: not given
Method: Inhibition of PI3K enzyme activity is measured in a microtiter plate-based fluorescence polarization (FP) assay.

Chain of Phosphatidylinositol 3-kinase regulatory subunit alpha/4,5-bisphosphate 3-kinase catalytic subunit alpha isoform (P27986 whole entry, canonical isoform): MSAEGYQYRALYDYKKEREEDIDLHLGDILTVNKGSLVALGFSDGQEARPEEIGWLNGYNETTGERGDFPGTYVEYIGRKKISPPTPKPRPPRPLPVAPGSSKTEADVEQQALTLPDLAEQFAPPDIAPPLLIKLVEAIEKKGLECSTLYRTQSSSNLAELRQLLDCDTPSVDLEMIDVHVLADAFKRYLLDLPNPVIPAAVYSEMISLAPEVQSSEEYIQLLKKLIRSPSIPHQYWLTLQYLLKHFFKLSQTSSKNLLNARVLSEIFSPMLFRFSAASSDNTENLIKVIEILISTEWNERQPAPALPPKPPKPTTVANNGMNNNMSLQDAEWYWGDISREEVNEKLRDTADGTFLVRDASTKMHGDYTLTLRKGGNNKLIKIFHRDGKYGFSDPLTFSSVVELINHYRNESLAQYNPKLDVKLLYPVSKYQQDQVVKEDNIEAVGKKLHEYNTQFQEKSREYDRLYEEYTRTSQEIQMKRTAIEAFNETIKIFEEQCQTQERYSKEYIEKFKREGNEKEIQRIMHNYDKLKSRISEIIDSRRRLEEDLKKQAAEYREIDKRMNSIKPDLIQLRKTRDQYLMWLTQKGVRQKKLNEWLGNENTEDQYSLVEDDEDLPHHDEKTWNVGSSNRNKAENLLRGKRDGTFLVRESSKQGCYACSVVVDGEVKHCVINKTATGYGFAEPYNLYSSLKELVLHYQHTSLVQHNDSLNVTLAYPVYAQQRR
Chain of Phosphatidylinositol 3-kinase regulatory subunit alpha/4,5-bisphosphate 3-kinase catalytic subunit alpha isoform (P42336 whole entry, canonical isoform): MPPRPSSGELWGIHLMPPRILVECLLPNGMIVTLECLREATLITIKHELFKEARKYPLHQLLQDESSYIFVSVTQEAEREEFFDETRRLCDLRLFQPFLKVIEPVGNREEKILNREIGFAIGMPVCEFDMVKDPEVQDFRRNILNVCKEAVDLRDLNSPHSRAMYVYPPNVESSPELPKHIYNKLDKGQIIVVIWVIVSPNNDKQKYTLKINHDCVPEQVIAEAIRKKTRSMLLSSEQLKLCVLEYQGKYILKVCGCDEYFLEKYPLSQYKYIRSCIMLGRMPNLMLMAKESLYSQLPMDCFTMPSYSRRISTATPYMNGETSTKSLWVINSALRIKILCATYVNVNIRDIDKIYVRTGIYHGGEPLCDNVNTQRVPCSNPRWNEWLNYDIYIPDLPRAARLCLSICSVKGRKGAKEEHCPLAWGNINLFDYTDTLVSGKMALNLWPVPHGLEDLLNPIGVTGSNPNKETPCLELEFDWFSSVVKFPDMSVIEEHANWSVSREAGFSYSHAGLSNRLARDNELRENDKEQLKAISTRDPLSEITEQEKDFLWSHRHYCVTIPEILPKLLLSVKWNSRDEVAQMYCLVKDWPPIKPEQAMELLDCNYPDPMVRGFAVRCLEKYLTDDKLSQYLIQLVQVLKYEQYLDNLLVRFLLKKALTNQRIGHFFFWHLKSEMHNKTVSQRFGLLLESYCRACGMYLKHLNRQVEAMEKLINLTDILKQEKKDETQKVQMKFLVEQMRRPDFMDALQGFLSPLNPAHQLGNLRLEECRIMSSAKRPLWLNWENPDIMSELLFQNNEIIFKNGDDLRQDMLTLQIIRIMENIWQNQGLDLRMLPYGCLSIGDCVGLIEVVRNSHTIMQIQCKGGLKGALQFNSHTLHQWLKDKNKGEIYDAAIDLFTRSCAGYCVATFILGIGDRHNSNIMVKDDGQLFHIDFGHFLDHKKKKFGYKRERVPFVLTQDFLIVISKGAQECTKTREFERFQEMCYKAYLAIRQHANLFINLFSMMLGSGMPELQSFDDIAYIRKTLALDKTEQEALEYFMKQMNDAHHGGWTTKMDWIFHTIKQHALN

IC50	SMILES
0.091 µM	COC[C@H]1OC(=O)C(=CN2CCN(C3CCN(C)CC3)CC2)C2C(=O)C(=O)C3=C([C@H](OC(C)=O)C[C@@]4(C)C3CC[C@@H]4O)[C@]21C (stereo partly drawn) [(2R,3S,6E,14S,15S,17R)-8,14-dihydroxy-3-(methoxymethyl)-2,15-dimethyl-6-{[4-(1-methylpiperidin-4-yl)piperazin-1-yl]methylidene}-5,9-dioxo-4-oxatetracyclo[8.7.0.0^{2,7}.0^{11,15}]heptadeca-1(10),7-dien-17-yl acetate]
0.015 µM	COC[C@H]1OC(=O)C(=CN(C)CCCN2CCN(c3ccc(OC)cc3)CC2)C2C(=O)C(=O)C3=C([C@H](OC(C)=O)C[C@@]4(C)C3CC[C@@H]4O)[C@]21C (stereo partly drawn) [(2R,3S,6E,14S,15S,17R)-8,14-dihydroxy-3-(methoxymethyl)-6-[({3-[4-(4-methoxyphenyl)piperazin-1-yl]propyl}(methyl)amino)methylidene]-2,15-dimethyl-5,9-dioxo-4-oxatetracyclo[8.7.0.0^{2,7}.0^{11,15}]heptadeca-1(10),7-dien-17-yl acetate]
0.024 µM	COC[C@H]1OC(=O)C(=CN(C)CCCN2CCOCC2)C2C(=O)C(=O)C3=C([C@H](OC(C)=O)C[C@@]4(C)C3CC[C@@H]4O)[C@]21C (stereo partly drawn) [(2R,3S,6E,14S,15S,17R)-8,14-dihydroxy-3-(methoxymethyl)-2,15-dimethyl-6-({methyl[3-(morpholin-4-yl)propyl]amino}methylidene)-5,9-dioxo-4-oxatetracyclo[8.7.0.0^{2,7}.0^{11,15}]heptadeca-1(10),7-dien-17-yl acetate]
0.09 µM	COC[C@H]1OC(=O)C(=CN2CCN(C)CC2)C2C(=O)C(=O)C3=C([C@H](OC(C)=O)C[C@@]4(C)C3CC[C@@H]4O)[C@]21C (stereo partly drawn) [(2R,3S,6E,14S,15S,17R)-8,14-dihydroxy-3-(methoxymethyl)-2,15-dimethyl-6-[(4-methylpiperazin-1-yl)methylidene]-5,9-dioxo-4-oxatetracyclo[8.7.0.0^{2,7}.0^{11,15}]heptadeca-1(10),7-dien-17-yl acetate]

The remaining lines, values behind:

SMILES	IC50
COC[C@H]1OC(=O)C(=CN2CCN(CCN3CCOCC3)CC2)C2C(=O)C(=O)C3=C([C@H](OC(C)=O)C[C@@]4(C)C3CC[C@@H]4O)[C@]21C (stereo partly drawn) [(2R,3S,6E,14S,15S,17R)-8,14-dihydroxy-3-(methoxymethyl)-2,15-dimethyl-6-({4-[2-(morpholin-4-yl)ethyl]piperazin-1-yl}methylidene)-5,9-dioxo-4-oxatetracyclo[8.7.0.0^{2,7}.0^{11,15}]heptadeca-1(10),7-dien-17-yl acetate]	0.078 µM
COC[C@H]1OC(=O)C(=CN2CCC(=O)CC2)C2C(=O)C(=O)C3=C([C@H](OC(C)=O)C[C@@]4(C)C3CC[C@@H]4O)[C@]21C (stereo partly drawn) [(2R,3S,6E,14S,15S,17R)-8,14-dihydroxy-3-(methoxymethyl)-2,15-dimethyl-5,9-dioxo-6-[(4-oxopiperidin-1-yl)methylidene]-4-oxatetracyclo[8.7.0.0^{2,7}.0^{11,15}]heptadeca-1(10),7-dien-17-yl acetate]	0.06 µM
COC[C@H]1OC(=O)C(=CN(C)CCN(C)C)C2C(=O)C(=O)C3=C([C@H](OC(C)=O)C[C@@]4(C)C3CC[C@@H]4O)[C@]21C (stereo partly drawn) [(2R,3S,6E,14S,15S,17R)-6-({[2-(dimethylamino)ethyl](methyl)amino}methylidene)-8,14-dihydroxy-3-(methoxymethyl)-2,15-dimethyl-5,9-dioxo-4-oxatetracyclo[8.7.0.0^{2,7}.0^{11,15}]heptadeca-1(10),7-dien-17-yl acetate]	0.0084 µM
COC[C@H]1OC(=O)C(=CN(C)CCCC(=O)O)C2C(=O)C(=O)C3=C([C@H](OC(C)=O)C[C@@]4(C)C3CC[C@@H]4O)[C@]21C (stereo partly drawn) [4-({[(2R,3S,6E,14S,15S,17R)-17-(acetyloxy)-8,14-dihydroxy-3-(methoxymethyl)-2,15-dimethyl-5,9-dioxo-4-oxatetracyclo[8.7.0.0^{2,7}.0^{11,15}]heptadeca-1(10),7-dien-6-ylidene]methyl}(methyl)amino)butanoic acid]	0.193 µM
CCN(C=C1C(=O)O[C@H](COC)[C@]2(C)C3=C(C(=O)C(=O)C12)C1CC[C@H](O)[C@@]1(C)C[C@H]3OC(C)=O)CCN(C)C (stereo partly drawn) [(2R,3S,6E,14S,15S,17R)-6-({[2-(dimethylamino)ethyl](ethyl)amino}methylidene)-8,14-dihydroxy-3-(methoxymethyl)-2,15-dimethyl-5,9-dioxo-4-oxatetracyclo[8.7.0.0^{2,7}.0^{11,15}]heptadeca-1(10),7-dien-17-yl acetate]	0.005 µM
COC[C@H]1OC(=O)C(=CN(CCCN(C)C)CCCN(C)C)C2C(=O)C(=O)C3=C([C@H](OC(C)=O)C[C@@]4(C)C3CC[C@@H]4O)[C@]21C (stereo partly drawn) [(2R,3S,6E,14S,15S,17R)-6-({bis[3-(dimethylamino)propyl]amino}methylidene)-8,14-dihydroxy-3-(methoxymethyl)-2,15-dimethyl-5,9-dioxo-4-oxatetracyclo[8.7.0.0^{2,7}.0^{11,15}]heptadeca-1(10),7-dien-17-yl acetate]	0.022 µM
COC[C@H]1OC(=O)C(=CN2CCC(N3CCCCC3)CC2)C2C(=O)C(=O)C3=C([C@H](OC(C)=O)C[C@@]4(C)C3CC[C@@H]4O)[C@]21C (stereo partly drawn) [(2R,3S,6E,14S,15S,17R)-8,14-dihydroxy-3-(methoxymethyl)-2,15-dimethyl-5,9-dioxo-6-{[4-(piperidin-1-yl)piperidin-1-yl]methylidene}-4-oxatetracyclo[8.7.0.0^{2,7}.0^{11,15}]heptadeca-1(10),7-dien-17-yl acetate]	0.063 µM
COC[C@H]1OC(=O)C(=CN2CCCCC2)C2C(=O)C(=O)C3=C([C@H](OC(C)=O)C[C@@]4(C)C3CC[C@@H]4O)[C@]21C (stereo partly drawn) [(2R,3S,6E,14S,15S,17R)-8,14-dihydroxy-3-(methoxymethyl)-2,15-dimethyl-5,9-dioxo-6-(piperidin-1-ylmethylidene)-4-oxatetracyclo[8.7.0.0^{2,7}.0^{11,15}]heptadeca-1(10),7-dien-17-yl acetate]	0.104 µM
COC[C@H]1OC(=O)C(=CN(CCC#N)Cc2ccccc2)C2C(=O)C(=O)C3=C([C@H](OC(C)=O)C[C@@]4(C)C3CC[C@@H]4O)[C@]21C (stereo partly drawn) [(2R,3S,6E,14S,15S,17R)-6-{[benzyl(2-cyanoethyl)amino]methylidene}-8,14-dihydroxy-3-(methoxymethyl)-2,15-dimethyl-5,9-dioxo-4-oxatetracyclo[8.7.0.0^{2,7}.0^{11,15}]heptadeca-1(10),7-dien-17-yl acetate]	0.444 µM
COC[C@H]1OC(=O)C(=CN2CCC(C(=O)O)CC2)C2C(=O)C(=O)C3=C([C@H](OC(C)=O)C[C@@]4(C)C3CC[C@@H]4O)[C@]21C (stereo partly drawn) [1-{[(2R,3S,6E,14S,15S,17R)-17-(acetyloxy)-8,14-dihydroxy-3-(methoxymethyl)-2,15-dimethyl-5,9-dioxo-4-oxatetracyclo[8.7.0.0^{2,7}.0^{11,15}]heptadeca-1(10),7-dien-6-ylidene]methyl}piperidine-4-carboxylic acid]	0.033 µM

Same assay, conditions: pH 7.5; 22 °C

IC50	SMILES
1.11 µM	COC[C@H]1OC(=O)C(=CN(CCO)C(C)(C)C)C2C(=O)C(=O)C3=C([C@H](OC(C)=O)C[C@@]4(C)C3CC[C@@H]4O)[C@]21C (stereo partly drawn) [(2R,3S,6Z,14S,15S,17R)-6-{[tert-butyl(2-hydroxyethyl)amino]methylidene}-8,14-dihydroxy-3-(methoxymethyl)-2,15-dimethyl-5,9-dioxo-4-oxatetracyclo[8.7.0.0^{2,7}.0^{11,15}]heptadeca-1(10),7-dien-17-yl acetate]
> 10 µM	CCNC=C1C(=O)O[C@H](COC)[C@]2(C)C3=C(C(=O)C(=O)C12)C1CC[C@H](O)[C@@]1(C)C[C@H]3OC(C)=O (stereo partly drawn) [(2R,3S,6Z,14S,15S,17R)-6-[(ethylamino)methylidene]-8,14-dihydroxy-3-(methoxymethyl)-2,15-dimethyl-5,9-dioxo-4-oxatetracyclo[8.7.0.0^{2,7}.0^{11,15}]heptadeca-1(10),7-dien-17-yl acetate]
0.635 µM	CCCCN(C)C=C1C(=O)O[C@H](COC)[C@]2(C)C3=C(C(=O)C(=O)C12)C1CC[C@H](O)[C@@]1(C)C[C@H]3OC(C)=O (stereo partly drawn) [(2R,3S,6Z,14S,15S,17R)-6-{[butyl(methyl)amino]methylidene}-8,14-dihydroxy-3-(methoxymethyl)-2,15-dimethyl-5,9-dioxo-4-oxatetracyclo[8.7.0.0^{2,7}.0^{11,15}]heptadeca-1(10),7-dien-17-yl acetate]
7.85 µM	CCN(C=C1C(=O)O[C@H](COC)[C@]2(C)C3=C(C(=O)C(=O)C12)C1CC[C@H](O)[C@@]1(C)C[C@H]3O)CC (stereo partly drawn) [(2R,3S,6Z,14S,15S,17R)-6-[(diethylamino)methylidene]-8,14,17-trihydroxy-3-(methoxymethyl)-2,15-dimethyl-4-oxatetracyclo[8.7.0.0^{2,7}.0^{11,15}]heptadeca-1(10),7-diene-5,9-dione]
0.496 µM	COC[C@H]1OC(=O)C(=CN2CCCC2)C2C(=O)C(=O)C3=C([C@H](OC(C)=O)C[C@@]4(C)C3CC[C@@H]4O)[C@]21C (stereo partly drawn) [(2R,3S,6Z,14S,15S,17R)-8,14-dihydroxy-3-(methoxymethyl)-2,15-dimethyl-5,9-dioxo-6-(pyrrolidin-1-ylmethylidene)-4-oxatetracyclo[8.7.0.0^{2,7}.0^{11,15}]heptadeca-1(10),7-dien-17-yl acetate]
0.638 µM	COC[C@H]1OC(=O)C(=CN(C)CCCN(C)C)C2C(=O)C(=O)C3=C([C@H](O)C[C@@]4(C)C3CC[C@@H]4O)[C@]21C (stereo partly drawn) [(2R,3S,6Z,14S,15S,17R)-6-({[3-(dimethylamino)propyl](methyl)amino}methylidene)-8,14,17-trihydroxy-3-(methoxymethyl)-2,15-dimethyl-4-oxatetracyclo[8.7.0.0^{2,7}.0^{11,15}]heptadeca-1(10),7-diene-5,9-dione]

The remaining lines, values behind:

SMILES	IC50
COC[C@H]1OC(=O)c2coc3c2[C@@]1(C)C1=C(C3=O)C2CC[C@H](O)[C@@]2(C)C[C@H]1OC(C)=O (stereo partly drawn) [(1R,3R,5S,6S,18S)-6-hydroxy-18-(methoxymethyl)-1,5-dimethyl-11,16-dioxo-13,17-dioxapentacyclo[10.6.1.0^{2,10}.0^{5,9}.0^{15,19}]nonadeca-2(10),12(19),14-trien-3-yl acetate]	0.0027 µM
C=CCN(C=C1C(=O)O[C@H](COC)[C@]2(C)C3=C(C(=O)C(=O)C12)C1CCC(=O)[C@@]1(C)C[C@H]3OC(C)=O)CC=C (some centres not stated) [PX-866]	0.088 µM
